According to US9889183B2, “PKC activators and anticoagulant in regimen for treating stroke” (BLANCHETTE ROCKEFELLER NEUROSCIENCES INSTITUTE, priority 2010, dated 2018):
One block for each compound: values may come before it.

Experiments:
[1] = molecular target: T1, PKCε (Homo sapiens, UniProt Q02156); test: PKC assay with purified PKCε; type: biochemical; conditions: for activation of purified PKCε (in words): FIG. 7, methyl esters
T1 construct: purchased Calbiochem
T1 sequence (Q02156 1-737): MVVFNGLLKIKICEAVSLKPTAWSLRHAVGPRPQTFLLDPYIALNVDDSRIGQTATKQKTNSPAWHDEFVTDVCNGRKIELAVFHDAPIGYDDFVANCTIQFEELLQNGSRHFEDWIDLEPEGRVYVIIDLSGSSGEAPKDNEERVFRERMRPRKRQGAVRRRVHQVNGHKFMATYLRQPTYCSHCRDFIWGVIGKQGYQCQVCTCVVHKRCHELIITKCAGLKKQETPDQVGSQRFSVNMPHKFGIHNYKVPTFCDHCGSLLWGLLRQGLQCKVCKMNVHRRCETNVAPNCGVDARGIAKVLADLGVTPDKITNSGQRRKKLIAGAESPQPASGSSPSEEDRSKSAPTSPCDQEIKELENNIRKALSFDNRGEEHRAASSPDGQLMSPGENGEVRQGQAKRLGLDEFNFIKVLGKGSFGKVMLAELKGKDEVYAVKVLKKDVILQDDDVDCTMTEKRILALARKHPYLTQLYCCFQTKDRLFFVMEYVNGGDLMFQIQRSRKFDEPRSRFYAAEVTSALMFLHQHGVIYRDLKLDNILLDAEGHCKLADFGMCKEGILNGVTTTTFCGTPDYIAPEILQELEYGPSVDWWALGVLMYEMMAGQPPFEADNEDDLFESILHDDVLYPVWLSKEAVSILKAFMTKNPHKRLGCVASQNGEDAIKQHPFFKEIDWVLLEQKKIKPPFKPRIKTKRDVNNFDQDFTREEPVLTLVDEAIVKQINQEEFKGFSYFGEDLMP
Method: PKC assay. Recombinant PKC (1 ng of PKCα or PKCε isoform) was mixed with BR-101 (DCP-LA) in the presence of 10 micromolar histones, 5 mM CaCl2, 1.2 μg/μl phosphatidyl-L-serine, 0.18 μg/μl 1,2-dioctanoyl-sn-glycerol (DAG), 10 mM MgCl2, 20 mM HEPES (pH 7.4), 0.8 mM EDTA, 4 mM EGTA, 4% glycerol, 8 μg/ml aprotinin, 8 μg/ml leupeptin, and 2 mM benzamidine. 0.5 micro Ci[^γ32P]ATP was added. The incubation mixture was incubated for 15 min at 37 degrees in a total volume of 10 microliters. The reaction was stopped by spotting the reaction mixtures on 1×2 cm strips of cellulose phosphate paper (Whatman P81) and immediately washing twice for 1 hr in 0.5% H3PO4. The cellulose phosphate strips were counted in a scintillation counter. In some experiments, phosphatidylserine, diacylglycerol, and/or calcium were removed.
DHA methyl ester was purchased from Cayman Chemical (Ann Arbor, Me.). PKC isozymes were from Calbiochem (San Diego, Calif.). Purified PKCε was purchased from Calbiochem.
(§1) Protein kinase C assay. Rat hippocampal cells were cultured and scraped in 0.2 ml homogenization buffer (20 mM Tris-HCl, pH 7.4, 50 mM NaF, 1 μg/ml leupeptin, and 0.1 mM PMSF) and homogenized by sonication a Marsonix microprobe sonicator (5 sec, 10 W). To measure PKC, 10 μl of cell homogenate or purified PKC isozyme (purchased from Calbiochem) was incubated for 15 min at 37° C. in the presence of 10 μM histones, 4.89 mM CaCl2, 1.2 μg/μl phosphatidyl-L-serine, 0.18 μg/μl 1,2-dioctanoyl-sn-glycerol, 10 mM MgCl2, 20 mM HEPES (pH 7.4), 0.8 mM EDTA, 4 mM EGTA, 4% glycerol, 8 μg/ml aprotinin, 8 μg/ml leupeptin, and 2 mM benzamidine. […][^γ32P]ATP was added and ^32P-phosphoprotein formation was measured by adsorption onto phosphocellulose as described previously. Nelson and Alkon, J. Neurochemistry (1995), vol. 65, pp. 2350-2357. For measurements of activation by BR-101 (DCP-LA) and similar compounds. PKC activity was measured in the absence of diacylglycerol and phosphatidylserine and PKC δ, ε, η, and μ were measured in the absence of added EGTA and CaCl2, as described by Kanno et al. (J. Lipid Res. 2006, vol. 47, pp. 1146-1150). Low concentrations of Ca^2+ are used because high Ca^2+ interacts with the PKC phosphatidylserine binding site and prevents activation. For measurements of bryostatin activation, 1,2-diacylglycerol was omitted unless otherwise stated.
To determine their PKC isozyme specificity, fatty acid derivatives were preincubated with purified PKC for five minutes and the PKC activity was measured radiometrically.

[2] = test system: PKC in H19-7/IGF-IR cells; test: PKC activity over time in rat H19-7/IGF-IR hippocampal cells; type: cell-based; conditions: treated cells, 8 hours; data not shown
Method: Cell culture. Rat hippocampal H19-7/IGF-IR cells (ATCC, Manassas, Va.) were plated onto poly-L-lysine coated plates and grown at 35° C. in DMEM/10% FCS for several days until about 50% coverage was obtained. The cells were then induced to differentiate into a neuronal phenotype by replacing the medium with 5 ml N2 medium containing 10 ng/ml basic fibroblast growth factor at 39° C. and grown in T-75 flasks at 37° C. Human SH-SY5Y neuroblastoma cells (ATCC) were cultured in 45% F12K/45% MEM/10% FCS. Mouse N2A neuroblastoma cells were cultured in DMEM/10% FCS without glutamine. Rat hippocampal neurons from 18-day-old embryonic Sprague Dawley rat brains were plated on 12- or 96-well plates coated with poly-D-lysine (Sigma-Aldrich, St. Louis, Mo.) in B-27 neurobasal medium containing 0.5 mM glutamine and 25 μM glutamate (Invitrogen, Carlsbad, Calif.) and cultured for three days in the medium without glutamate. The neuronal cells were grown under 5% CO2 in an incubator maintained at 37° C. for 14 days.
as §1
PKC activators that bind to the diacylglycerol binding site, including bryostatin, gnidimacrin, and phorbol esters, produce a transient activation of PKC activity, followed by a prolonged downregulation. Nelson et al., Trends in Biochem. Sci. (2009), vol. 34, pp. 136-145. This was confirmed in cultured rat hippocampal cells. Incubation of rat H19-7/IGF-IR cells with (0.04 nM and 0.2 nM) bryostatin produced a 2-fold activation that lasted 30 min, followed by a 20% downregulation that returned to baseline by 24 hours (data not shown). […] This sustained activation was only observed in primary neurons.

[3] = test system: Aβ in COS cells; conditions: 1 μM, cultured COS cells, 8 hours; cited from earlier work
[4] = test system: squamous cell carcinoma and melanoma; conditions: used topically; cited from earlier work
[5] = test system: PKC; conditions: cited from earlier work
[6] = test system: global cerebral ischemia/hypoxia in rats; test: Global ischemia model, water maze (Examples 10-11); type: in vivo, rat
Method: Rats (male, Wistar, 200-225 g) were randomly divided into 6 groups (8 each) and housed for 1 week before experimentation. […] The global ischemia model used to induce vascular memory impairment was two-vessel occlusion combined with a short term systemic hypoxia. Ligation of the bilateral common carotid arteries was performed under anesthesia (pentobarbital, 60 mg/kg, i.p.). After a one-week recovery from the surgery, rats were exposed to 14-min hypoxia (5% oxygen in a glass jar). Control rats (sham operated and vehicle controls) were subjected to the same incision to isolate both common carotid arteries and to 14-min air (in the glass jar). Body temperature was kept at 37-37.5° C. using a heating light source during the surgical procedure and until the animals were fully recovered.

[7] = non-ischemic rats, same regimens

effect on PKC ([1]; FIG. 8): little or no effect
Compound: CCC1CC1CC1CC1CC1CC1CCCCCCCCO (stereo not shown) [BR-104, linolenic alcohol tricyclopropane]

concentrations at which PKCε is inhibited ([1]; FIG. 8): above 1 μM
Compound: CCCCC[C@H]1O[C@H]1CC1CC1CCCCCCCC(=O)OC (stereo partly shown) [BR-109, vernolic acid methyl ester cyclopropane]

Compound: CCCCCCCCCCCCCC(=O)O[C@@H]1[C@@H](C)[C@@]2(O)[C@@H](C=C(CO)C[C@]3(O)C(=O)C(C)=C[C@@H]23)[C@@H]2C(C)(C)[C@]12OC(C)=O [PMA, phorbol 12-myristate 13-acetate]
PKC activity at 8 hours (downregulation) [2]: strongly downregulated

Compound: CCCC(=O)O[C@@H]1[C@@H](C)[C@@]2(O)[C@@H](C=C(CO)C[C@]3(O)C(=O)C(C)=C[C@@H]23)[C@@H]2C(C)(C)[C@]12OC(=O)CCC [PdBu]
effect on Aβ [3]: increase in Aβ

Compound: C/C=C(/C)C(=O)O[C@H]1C(C)=C[C@]23C(=O)[C@@H](C=C(CO)[C@@H](O)[C@]12O)[C@H]1[C@@H](C[C@H]3C)C1(C)C [Ingenol-3-angelate]
antitumor activity [4]: exhibits antitumor activity

effect on PKC ([1]; FIG. 8): little or no effect
Compound: epoxystearic acid [BR-116]

concentration needed to activate PKC relative to BR-101 (DCP-LA) [1]: approximately 100 times lower
Compound: CCCCCC1CC1CC1CC1CC1CC1CC1CC1CCCC(=O)OC (stereo not shown) [BR-115, methyl 4-(2-((2-((2-((-pentylcyclopropyl)methyl)cyclopropyl)methyl)cyclopropyl)methyl)cyclopropyl)butanoate methyl ester]
activation of purified PKCε (in words) [1]: activated purified PKCε to a similar extent

concentration needed to activate PKC relative to BR-101 (DCP-LA) [1]: approximately 100 times lower
Compound: CCC1CC1CC1CC1CC1CC1CC1CC1CC1CC1CCCC(=O)OC (stereo not shown) [BR-114]
activation of purified PKCε (in words) [1]: activated purified PKCε to a similar extent

Compound: CCCCCCCC(=O)O[C@H]1/C(=C/C(=O)OC)C[C@H]2C[C@H](CO)OC(=O)C[C@H](O)C[C@@H]3CCC[C@H](C[C@@H]4CCO[C@H](/C=C/C(C)(C)[C@]1(O)O2)O4)O3 [Analog 1]
affinity for PKC (in words) [5]: highest affinity

Compound: CCCCCC1OC1C/C=C\CCCCCCCC(=O)OC (stereo in doubt) [BR-117, vernolic acid methyl ester]
effect on PKC ([1]; FIG. 8): little or no effect

effect on PKC ([1]; FIG. 8): little or no effect
Compound: CCCCCC1CC1CC1CC1CCCCCCCCO (stereo not shown) [BR-105, linoleic alcohol dicyclopropane]

Compound: Cc1ccc(OCC(=O)O)c(OCC(=O)O)c1 [MCDA, 4-Methylcatechol-diacetic acid]
water maze spatial learning, ischemic treated vs ischemic rats ([6]; bryostatin-1 20 μg/m^2 i.v. 2 doses/week, 10 doses, MCDA 1.0 mg/kg i.p. daily 5 weeks, start 24 hours after hypoxia): improved the learning
target quadrant ratio in probe test, drug-only vs control rats [6, 7]: no differences
water maze spatial learning, drug-only vs control rats [6, 7]: no differences
target quadrant ratio in probe test, ischemic treated vs control rats ([6]; same regimens): no differences
target quadrant ratio in probe test, ischemic treated vs ischemic rats ([6]; same regimens): group differences
water maze spatial learning, ischemic treated vs control rats ([6]; same regimens): remained significant
